Laboratory results: patent US20110190235A1, “BORON-CONTAINING SMALL MOLECULES AS ANTIPROTOZOAL AGENTS” (Anacor Pharmaceuticals, Inc., priority 2009, published 2011)

Tested on: TREU 667 strain of T. b. brucei
Assay: Chronic CNS Model
Type: in vivo, T. b. brucei in mice
Details: 75 mg/kg BID for 7 days, starting at Day 21 post-infection
Experimental: Mice were infected with 10,000 parasites of the TREU 667 strain of T. b. brucei. Twenty one days post-infection mice were treated with a dose of between 6 and 100 mg/kg of the compound, either BID or QD for 7 days intraperitoneally (IP) or orally (PO). Positive control mice were treated with Diminazene (10 mg/kg, IP) on Day 4 post-infection. Negative control mice were treated with Diminazene (10 mg/kg, PO) on Day 21. Since Diminazene is not able to penetrate the CNS, mice treated at Day 21 are not able to cure the infection. Starting 1 week after the end of treatment, mice are monitored for parasitemia and sacrificed if parasites are detected in the blood. Mice that survive 6 months are considered “cured.”

In the case of `CC1(C)OB(O)c2cc(NC(=O)c3ccc(F)cc3C(F)(F)F)ccc21`, the “mice with absence of blood parasites through Day 84” value is reported as 100%.
